Assay results: publication PMC5465257, “Evaluation of JNJ-54717793 a Novel Brain Penetrant Selective Orexin 1 Receptor Antagonist in Two Rat Models of Panic Attack Provocation” (Frontiers in Pharmacology, 2017)
Like-named read-outs stand apart in the source and are kept apart here.

Legend:
[1] = Ex vivo OX1R receptor occupancy autoradiography in rat brain (tenia tecta), with plasma bioanalysis; details: male, Sprague-Dawley, plasma
Method: (§1) Experiments were performed as previously described ([Dugovic et al., 2009]) in male Sprague-Dawley rats (300–400 g, Charles River Laboratories, San Diego, CA, United States). The animals were euthanized using carbon dioxide and decapitated at different time points after drug administration (n = 3 per time point or dose regimen). Brains were rapidly frozen on powdered dry ice and stored at -80°C before sectioning. Plasma samples were also collected for bioanalysis (LC–MS/MS). Twenty micron thick tissue sections at the level of the tenia tecta were prepared for autoradiography. OX1R radioligand binding autoradiography was determined at room temperature with 5 nM [^3H]SB-674042. Sections were incubated for 10 min to minimize dissociation. Non-specific binding was determined in the presence of 10 μM SB-674042. Ex vivo receptor labeling was expressed as the percentage of receptor labeling in corresponding brain areas (i.e., tenia tecta) of vehicle-treated animals. The percentage of receptor occupancy was plotted against time or dosage using GraphPad Prism (GraphPad Software, San Diego, CA, United States). Percentage of receptor occupancy was also plotted against drug plasma or brain concentration. Pharmacokinetic parameters were analyzed using a non-compartmental model using the software package WinNonlin Version 4.0.1 (Pharsight, Palo Alto, CA, United States).
(§2) In vivo occupancy of the OX1R was assessed by ex vivo receptor binding autoradiography of [^3H]SB-674042 in rat brain tissue sections at the level of the tenia tecta. Time-dependency and dose-dependency were assessed after oral dosing (Figure 2).

[2] = target: T1, OX1R in rat brain (tenia tecta) (Rattus norvegicus, UniProt P56718); assay: as above
T1 construct: Twenty micron thick tissue sections at the level of the tenia tecta were prepared for autoradiography; from tissue; host or cells: brain sections (tenia tecta) of male Sprague-Dawley rats
T1 sequence (P56718 1-416): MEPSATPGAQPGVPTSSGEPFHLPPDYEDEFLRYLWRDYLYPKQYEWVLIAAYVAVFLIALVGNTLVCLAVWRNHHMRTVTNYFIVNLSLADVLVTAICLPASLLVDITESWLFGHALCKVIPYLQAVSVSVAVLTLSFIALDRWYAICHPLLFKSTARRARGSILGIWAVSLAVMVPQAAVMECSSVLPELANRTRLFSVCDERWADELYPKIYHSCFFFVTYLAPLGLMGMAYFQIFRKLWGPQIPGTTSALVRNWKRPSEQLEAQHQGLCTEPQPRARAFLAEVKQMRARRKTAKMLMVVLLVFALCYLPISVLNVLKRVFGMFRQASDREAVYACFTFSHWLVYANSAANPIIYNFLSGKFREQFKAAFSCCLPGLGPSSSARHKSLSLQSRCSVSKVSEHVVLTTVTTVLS
Method: as §1, §2

Sprague-Dawley rats = assay: Normoxic 20% CO2 panic provocation model
Method: Experiments were performed in male Sprague-Dawley rats (300–350 g, Harlan Laboratory, Indianapolis, IN, United States). […] Following exposure to hypercarbic and atmospheric air gasses, rats were immediately placed in the open-field box for a 5 min period then assessed in SI test for 5 min. The data reported are changes in activity, expressed in 1 min bins, relative to the average of the baseline measurement (t-5 to t-1 minute) from each rat.
Each dependent variable for assessment of behavior and radiotelemetry data was respectively analyzed using a one way ANOVA, or a one way ANOVA with repeated measures with drug treatment as the main factor and time as repeated measures. In the presence of significant main effects post hoc tests were conducted using a parametric Fisher’s LSD test. Within subjects time effects were also assessed using a Dunnett’s one way analysis with the minute prior to the i.v infusion used as the control. Statistical significance was accepted with p < 0.05. All statistical analyses were carried out using SPSS 13.0 (SPSS, Inc., Chicago, IL, United States) and all graphs were generated using SigmaPlot 2001 (SPSS, Inc., Chicago, IL, United States) or Graphpad Prizm 7 Software, Inc. for Windows.
Activation of the OX1R is a critical component of CO2-mediated anxiety and hypertension ([Johnson et al., 2012a]). Exposing rats to higher concentrations of hypercarbic gas (e.g., 20% CO2) depolarizes OX neurons by interacting with pH/ CO2 chemosensitive K^+ channels ([Williams et al., 2007]), and also causes subsequent release of orexin at post-synaptic targets in the brain and spinal cord to mobilize anxiety-like behavior, hypertension, and increases ventilatory responses ([Johnson et al., 2012c], [2015]). JNJ-54717793 was tested in a rat model of CO2-induced panic.

[3] = target: T1, OX1R in rat brain (tenia tecta); assay: Ex vivo OX1R receptor occupancy autoradiography in rat brain (tenia tecta), with plasma bioanalysis; details: 10 mg/kg subcutaneous; for receptor occupancy at 10 mg/kg: sc
rat OX1R = target: T2, rat OX1R (Rattus norvegicus, UniProt P56718); assay: Rat OX1R competitive radioligand binding ([3H]SB-674042); parameters: expressed in transfected cells; host or cells: clonal HEK-293 cells
T2 sequence (P56718 1-416): T1 sequence (P56718 1-416)
Method: Human or rat OX1R binding was measured in competitive radioligand binding assays using [^3H]SB-674042 (1-(5-(2-fluoro-phenyl)-2-methyl-thiazol-4-yl)-1-((S)-2-(5-phenyl-(1,3,4)oxadiazol-2-ylmethyl)-pyrrolidin-l-yl)-methanone) as a tracer (4 nM, specific activity 35 Ci/mmol) as previously described ([Langmead et al., 2004]). Cell membranes were prepared from clonal CHO K1 cells transfected with the human OX1R or clonal HEK-293 cells transfected with the rat OX1R. Dilutions of test compounds were made in Dulbecco’s PBS from 10 mM stocks dissolved in dimethyl sulfoxide. After a 60 min incubation at room temperature, binding reactions were filtered. The membranes were counted in a scintillation counter. Non-specific binding was determined in the presence of 10 μM almorexant. Affinities of compounds for the human OX2R were measured by competitive radioligand binding using tritiated N-ethyl-2-[(6-methoxy-pyridin-3-yl)-(toluene-2-sulfonyl)-amino]-N-pyridin-3-ylmethyl-acetamide (EMPA) (2 nM, specific activity 27 Ci/mmol) ([Malherbe et al., 2009]). Cell membranes were prepared from a stable pool of HEK-293 cells transfected with the human OX2R. Non-specific binding was determined with 10 μM almorexant.
The Ki of the test compounds was calculated based on non-linear regression (one site competition) using Graphpad Prism. […]

Q: Which concentration at 60 min ([1]; 1.3 mg/kg, oral, 95% confidence interval 26 to 277 ng/ml, read-out: plasma exposure corresponding to ED50) does the source give for `O=C(c1cccc(F)c1-c1ncccn1)N1[C@@H]2CC[C@H]1[C@H](Nc1cnc(C(F)(F)F)cn1)C2` [JNJ-54717793, (1S,2R,4R)-7-([(3-fluoro-2-pyrimidin-2-ylphenyl)carbonyl]-N-[5-(trifluoromethyl)pyrazin-2-yl]-7-azabicyclo[2.2.1]heptan-2-amine)] here?
A: 84 ng/mL

Q: What about the concentration at 60 min ([1]; 3 mg/kg oral, read-out: plasma concentration at plateau of occupancy) of the same molecule?
A: ~311 ng/mL

Q: What about the concentration at 15 min ([1]; 30 mg/kg oral, 15 min, read-out: plasma concentration at maximal OX1R occupancy) of the same molecule?
A: 3730 ± 440 ng/mL

Q: What about the “level of OX1R occupancy” value ([2]; 30 mg/kg oral, after the first 6 h) of the same molecule?
A: negligible

Q: What about the receptor occupancy at 30 mg/kg ([2]; 30 mg/kg oral, first 6 h, read-out: level of OX1R occupancy) of the same molecule?
A: > 58%

Q: And the receptor occupancy at 30 mg/kg ([2]; 30 mg/kg oral, observed at 15 min, read-out: maximal OX1R occupancy)?
A: 87 ± 3%

Q: What about the ED50 ([2]; oral, 60 min after treatment) of the same molecule?
A: 1.3 mg/kg

Q: What about the receptor occupancy at 3 mg/kg ([2]; oral, reached at 3 mg/kg, 60 min after treatment, read-out: plateau for maximal OX1R occupancy) of the same molecule?
A: 80 to 90%

Q: And the “CO2-induced pressor responses (MAP)” value (Sprague-Dawley rats; rats, 3 mg/kg p.o.)?
A: at one time point

Q: And the “CO2-induced pressor responses (MAP)” value (Sprague-Dawley rats; rats, 30 mg/kg p.o.)?
A: attenuated CO2-induced pressor responses at multiple time points

Q: And the “increases in locomotor activity post CO2” value (Sprague-Dawley rats; rats, 3, 10, 30 mg/kg p.o.)?
A: no effect

Q: And the “CO2-induced bradycardia responses (HR)” value (Sprague-Dawley rats; rats, 10 and 30 mg/kg p.o.)?
A: attenuated CO2-induced bradycardia responses at multiple time points

Q: And the “center or middle times in the open field test” value (Sprague-Dawley rats; rats, after CO2 challenge)?
A: Nor was there an effect

Q: What about the “sedative effects (line crossings) in the open field test” value (Sprague-Dawley rats; rats, after CO2 challenge) of the same molecule?
A: no apparent sedative effects

Q: And the “CO2-induced anxiety behavior in the SI test” value (Sprague-Dawley rats; rats, highest dose (30 mg/kg p.o.))?
A: attenuated/blocked

Q: And the “plasma concentration for maximal receptor occupancy” value [3]?
A: 2211 ± 339 ng/mL

Q: And the receptor occupancy at 10 mg/kg ([3]; 2 h time point, read-out: OX1R occupancy)?
A: 65%

Q: What about the receptor occupancy at 10 mg/kg ([3]; observed at 30 min, read-out: maximal OX1R occupancy) of the same molecule?
A: 83 ± 7%

Q: And the Ki (rat OX1R)?
A: 14.5 nM
